Target: T1, human recombinant PDE5 (Homo sapiens, UniProt O76074)
T1 construct: host or cells: Saccharomyces cerevisiae, protease-deficient strain BJ2-54 (ATCC 74465)
Experiment: cGMP-PDE one-step inhibition assay, human recombinant PDE5
Assay type: biochemical
Settings: 0.15 μM 8-[H3]-cGMP, 30 min incubation
Method: The compounds of structural formula (I) were tested for an ability to inhibit PDE5. The ability of a compound to inhibit PDE5 activity is related to the IC50 value for the compound, i.e., the concentration of inhibitor required for 50% inhibition of enzyme activity. The IC50 value for compounds of structural formula (I) were determined using recombinant human PDE5.
The production of recombinant human PDEs and the IC50 determinations can be accomplished by well-known methods in the art. Exemplary methods are described as follows:
Recombinant production of human PDE1B, PDE2, PDE4A, PDE4B, PDE4C, PDE4D, PDE5, and PDE7 was carried out similarly to that described in Example 7 of U.S. Pat. No. 5,702,936, incorporated herein by reference, except that the yeast transformation vector employed, which is derived from the basic ADH2 plasmid described in Price et al., Methods in Enzymology, 185, pp. 308-318 (1990), incorporated yeast ADH2 promoter and terminator sequences and the Saccharomyces cerevisiae host was the protease-deficient strain BJ2-54 deposited on Aug. 31, 1998 with the American Type Culture Collection, Manassas, Va., under accession number ATCC 74465. Transformed host cells were grown in 2×SC-leu medium, pH 6.2, with trace metals, and vitamins. After 24 hours, YEP medium-containing glycerol was added to a final concentration of 2×YET/3% glycerol. Approximately 24 hr later, cells were harvested, washed, and stored at −70° C. […]
Cell pellets (29 g) were thawed on ice with an equal volume of Lysis Buffer (25 mM Tris HCl, pH 8, 5 mM MgCl2, 0.25 mM DTT, 1 mM benzamidine, and 10 μM ZnSO4). Cells were lysed in a Microfluidizer® (Microfluidics Corp.) using nitrogen at 20,000 psi. The lysate was centrifuged and filtered through 0.45 μm disposable filters. The filtrate was applied to a 150 mL column of Q SEPHAROSE® Fast-Flow (Pharmacia). The column was washed with 1.5 volumes of Buffer A (20 mM Bis-Tris Propane, pH 6.8, 1 mM MgCl2, 0.25 mM DTT, 10 μM ZnSO4) and eluted with a step gradient of 125 mM NaCl in Buffer A followed by a linear gradient of 125-1000 mM NaCl in Buffer A. Active fractions from the linear gradient were applied to a 180 mL hydroxyapatite column in Buffer B (20 mM Bis-Tris Propane (pH 6.8), 1 mM MgCl2, 0.25 mM DTT, 10 μM ZnSO4, and 250 mM KCl). After loading, the column was washed with 2 volumes of Buffer B and eluted with a linear gradient of 0-125 mM potassium phosphate in Buffer B. Active fractions were pooled, precipitated with 60% ammonium sulfate, and resuspended in Buffer C (20 mM Bis-Tris Propane, pH 6.8, 125 mM NaCl, 0.5 mM DTT, and 10 μM ZnSO4). The pool was applied to a 140 mL column of […]® S-300 HR and eluted with Buffer C. Active fractions were diluted to 50% glycerol and stored at −20° C.
cGMP-PDE activity of compounds of the present invention was measured using a one-step assay adapted from Wells et al., Biochim. Biophys. Acta, 384, 430 (1975). The reaction medium contained 50 mM Tris-HCl, pH 7.5, 5 mM magnesium acetate, 250 μg/ml 5′-Nucleotidase, 1 mM EGTA, and 0.15 μM 8-[H^3]-cGMP. Unless otherwise indicated, the enzyme used was a human recombinant PDE5 (ICOS Corp., Bothell, Wash.).
Compounds of the invention were dissolved in DMSO finally present at 2% in the assay.

In the case of `CCOCCCN1CC(=O)N2[C@H](c3ccc4c(c3)OCO4)c3[nH]c4ccccc4c3C[C@@H]2C1=O` [Example 39], the IC50 is reported as 30 nM.
With `CN1CCN(NC(=O)CN2CC(=O)N3[C@H](c4ccc5c(c4)OCO5)c4[nH]c5ccccc5c4C[C@@H]3C2=O)CC1` [Example 84] the IC50 was 120 nM.
Work on `N#CCN1CC(=O)N2[C@H](c3ccc4c(c3)OCO4)c3[nH]c4ccccc4c3C[C@@H]2C1=O` [Example 60] yielded an IC50 of 10 nM.
`NN1CC(=O)N2[C@H](c3ccc4c(c3)OCO4)c3[nH]c4ccccc4c3C[C@@H]2C1=O` [Example 4, (6R,12aR)-2-Amino-6-benzo[1,3]dioxo-5-yl-2,3,6,7,12,12a-hexahydropyrazino[1′, 2′:1,6]-pyrido[3,4-b]indole-1,4-dione] gave an IC50 of 1.8 nM.
`N#Cc1ccc(CN2CC(=O)N3[C@H](c4ccc5c(c4)OCO5)c4[nH]c5ccccc5c4C[C@@H]3C2=O)cc1` [Example 59] gave an IC50 of 70 nM.
Work on `CC(C)(C)OC(=O)CCN1CC(=O)N2[C@H](c3ccc4c(c3)OCO4)c3[nH]c4ccccc4c3C[C@@H]2C1=O` [Example 71] yielded an IC50 of 10 nM.
`CC1C(=O)N2[C@H](c3ccc4c(c3)OCO4)c3[nH]c4ccccc4c3C[C@@H]2C(=O)N1CCN(C)C` (stereo partly shown) [Example 8] gave an IC50 of 130 nM.
`NS(=O)(=O)c1ccc(CN2CC(=O)N3[C@H](c4ccc5c(c4)OCO5)c4[nH]c5ccccc5c4C[C@@H]3C2=O)cc1` [Example 58] showed an IC50 of 20 nM.
In the case of `O=C(O)CN1CC(=O)N2[C@H](c3ccc4c(c3)OCO4)c3[nH]c4ccccc4c3C[C@@H]2C1=O` [Example 69], the IC50 is reported as 20 nM.
Molecule `COC(=O)CN1CC(=O)N2[C@H](c3ccc4c(c3)OCO4)c3[nH]c4ccccc4c3C[C@@H]2C1=O` [Example 87] has an IC50 of 20 nM.
`CON1CC(=O)N2[C@H](c3ccc4c(c3)OCO4)c3[nH]c4ccccc4c3C[C@@H]2C1=O` [Example 3, (6R,12aR)-6-Benzo[1,3]dioxol-5-yl-2-methoxy-2,3,6,7,12,12a-hexahydropyrazino[1′,2′:1,6]-pyrido[3,4-b]indole-1,4-dione] was tested, and the IC50 was 2.5 nM.
With `O=C1[C@H]2Cc3c([nH]c4ccccc34)[C@@H](c3ccc4c(c3)OCO4)N2C(=O)CN1CCCn1cccn1` [Example 79] the IC50 was 6.3 nM.
With `CN(C)CCOc1ccc(CN2CC(=O)N3[C@H](c4ccc5c(c4)OCO5)c4[nH]c5ccccc5c4C[C@@H]3C2=O)cc1` [Example 81] the IC50 was 290 nM.
`O=C1[C@H]2Cc3c([nH]c4ccccc34)[C@@H](c3ccc4c(c3)OCO4)N2C(=O)CN1CCOCCO` [Example 40] showed an IC50 of 10 nM.
`O=C1CCCN1CCCN1CC(=O)N2[C@H](c3ccc4c(c3)OCO4)c3[nH]c4ccccc4c3C[C@@H]2C1=O` [Example 27] gave an IC50 of 5.4 nM.
`O=C1C2Cc3c([nH]c4ccccc34)C(c3ccc4c(c3)OCO4)N2C(=O)CN1CCn1cncn1` (stereo not shown) [Example 82] showed an IC50 of 30 nM.
Molecule `O=C1[C@H]2Cc3c([nH]c4ccccc34)[C@@H](c3ccc4c(c3)OCO4)N2C(=O)CN1CCCN1CCOCC1` [Example 18] has an IC50 of 40 nM.
With `NS(=O)(=O)c1ccc(CCN2CC(=O)N3[C@H](c4ccc5c(c4)OCO5)c4[nH]c5ccccc5c4C[C@@H]3C2=O)cc1` [Example 1, (6R-trans)-6-(1,3-Benzodioxol-5-yl)-2,3,6,7,12,12a-hexahydro-2-[2-(4-phenylsulfamoyl)-ethyl]pyrazino[1′,2′:1,6]pyrido[3,4-b]indole-1,4-dione] the IC50 was 1.4 nM.
Work on `Nc1ccc(CCN2CC(=O)N3[C@H](c4ccc5c(c4)OCO5)c4[nH]c5ccccc5c4C[C@@H]3C2=O)cc1` [Example 66] yielded an IC50 of 40 nM.
With `CN(C(=O)CN1CC(=O)N2[C@H](c3ccc4c(c3)OCO4)c3[nH]c4ccccc4c3C[C@@H]2C1=O)c1ccccc1` [Example 43] the IC50 was 100 nM.
For `CCCCCCCCOC(=O)CN1CC(=O)N2[C@H](c3ccc4c(c3)OCO4)c3[nH]c4ccccc4c3C[C@@H]2C1=O` [Example 88], the IC50 was 110 nM.
With `CNc1cc(CN2CC(=O)N3[C@H](c4ccc5c(c4)OCO5)c4[nH]c5ccccc5c4C[C@@H]3C2=O)cc([N+](=O)[O-])c1` [Example 83] the IC50 was 40 nM.
For `O=C(O)CCN1CC(=O)N2[C@H](c3ccc4c(c3)OCO4)c3[nH]c4ccccc4c3C[C@@H]2C1=O` [Example 72], the IC50 was 2.3 nM.
With `COC(=O)c1ccc(CN2CC(=O)N3[C@H](c4ccc5c(c4)OCO5)c4[nH]c5ccccc5c4C[C@@H]3C2=O)cc1` [Example 62] the IC50 was 20 nM.
`CCOC(=O)CCN1CC(=O)N2[C@H](c3ccc4c(c3)OCO4)c3[nH]c4ccccc4c3C[C@@H]2C1=O` [Example 24] was tested, and the IC50 was 9.6 nM.
`O=C(CCN1CC(=O)N2[C@H](c3ccc4c(c3)OCO4)c3[nH]c4ccccc4c3C[C@@H]2C1=O)NC1CCCCC1` [Example 33] showed an IC50 of 10 nM.
`O=C(CN1CC(=O)N2[C@H](c3ccc4c(c3)OCO4)c3[nH]c4ccccc4c3C[C@@H]2C1=O)Nc1ccncc1` [Example 38] showed an IC50 of 3.9 nM.
`O=C1[C@H]2Cc3c([nH]c4ccccc34)[C@@H](c3ccc4c(c3)OCO4)N2C(=O)CN1CCCn1ccnc1` [Example 32] gave an IC50 of 10 nM.
`O=C(O)c1ccc(CN2CC(=O)N3[C@H](c4ccc5c(c4)OCO5)c4[nH]c5ccccc5c4C[C@@H]3C2=O)cc1` [Example 47] gave an IC50 of 4.3 nM.
`O=C(CN1CC(=O)N2[C@H](c3ccc4c(c3)OCO4)c3[nH]c4ccccc4c3C[C@@H]2C1=O)N1CCN(c2ccccc2)CC1` [Example 42] gave an IC50 of 140 nM.
For `COCCCN1CC(=O)N2[C@H](c3ccc4c(c3)OCO4)c3[nH]c4ccccc4c3C[C@@H]2C1=O` [Example 25], the IC50 was 10 nM.
Work on `Cn1cnc2cc(CN3CC(=O)N4[C@H](c5ccc6c(c5)OCO6)c5[nH]c6ccccc6c5C[C@@H]4C3=O)ccc21` [Example 85] yielded an IC50 of 20 nM.
In the case of `CC(=O)NCCN1CC(=O)N2[C@H](c3ccc4c(c3)OCO4)c3[nH]c4ccccc4c3C[C@@H]2C1=O` [Example 26], the IC50 is reported as 10 nM.
Molecule `O=C1[C@H]2Cc3c([nH]c4ccccc34)[C@@H](c3ccc4c(c3)OCO4)N2C(=O)CN1Cc1ccc(NS(=O)(=O)C(F)(F)F)cc1` [Example 57] has an IC50 of 5.1 nM.
Molecule `O=C(CCCN1CC(=O)N2[C@H](c3ccc4c(c3)OCO4)c3[nH]c4ccccc4c3C[C@@H]2C1=O)NC1CCCCC1` [Example 35] has an IC50 of 4.3 nM.
With `O=C(CN1CC(=O)N2[C@H](c3ccc4c(c3)OCO4)c3[nH]c4ccccc4c3C[C@@H]2C1=O)NCc1ccccc1` [Example 30] the IC50 was 20 nM.
Molecule `COCCN1CC(=O)N2[C@H](c3ccc4c(c3)OCO4)c3[nH]c4ccccc4c3C[C@@H]2C1=O` [Example 29] has an IC50 of 5.9 nM.
`O=C(CN1CC(=O)N2[C@H](c3ccc4c(c3)OCO4)c3[nH]c4ccccc4c3C[C@@H]2C1=O)Nc1ccccc1` [Example 28] was tested, and the IC50 was 3.9 nM.
Molecule `O=C(CN1CC(=O)N2[C@H](c3ccc4c(c3)OCO4)c3[nH]c4ccccc4c3C[C@@H]2C1=O)OCc1ccccc1` [Example 68] has an IC50 of 40 nM.
`O=C1[C@H]2Cc3c([nH]c4ccccc34)[C@@H](c3ccc4c(c3)OCO4)N2C(=O)CN1CCc1cnc[nH]1` [Example 64] showed an IC50 of 20 nM.
With `O=C(CN1CC(=O)N2[C@H](c3ccc4c(c3)OCO4)c3[nH]c4ccccc4c3C[C@@H]2C1=O)N1CCCCC1` [Example 31] the IC50 was 20 nM.
`O=C(O)CCN1CC(=O)N2[C@H](c3ccc4c(c3)OCO4)c3[nH]c4ccccc4c3C[C@@H]2C1=O` [Example 36] showed an IC50 of 50 nM.
In the case of `O=C1[C@H]2Cc3c([nH]c4ccccc34)[C@@H](c3ccc4c(c3)OCO4)N2C(=O)CN1Cc1cccc(NS(=O)(=O)C(F)(F)F)c1` [Example 77], the IC50 is reported as 1.7 nM.
In the case of `CCCCN(C)C(=O)CCCN1CC(=O)N2[C@H](c3ccc4c(c3)OCO4)c3[nH]c4ccccc4c3C[C@@H]2C1=O` [Example 34], the IC50 is reported as 10 nM.
Work on `CC(C)(C)OC(=O)CN1CC(=O)N2[C@H](c3ccc4c(c3)OCO4)c3[nH]c4ccccc4c3C[C@@H]2C1=O` [Example 86] yielded an IC50 of 70 nM.
With `CN1CCN(CCN2CC(=O)N3[C@H](c4ccc5c(c4)OCO5)c4[nH]c5ccccc5c4C[C@@H]3C2=O)CC1` [Example 46] the IC50 was 50 nM.

Source: US6911542B2, “Pyrazino[1′,2′:1,6]pyrido[3,4b]indole derivatives” (Lilly Icos LLC., priority 2000, dated 2005)
